One test has as its target T1, PI3K δ (Homo sapiens, UniProt O00329).
T1 construct: purchased Upstate
As to the kind of experiment: In vitro IC50, PI3K δ (p110δ/p85α inhibition assay). It counts as biochemical. The conditions noted are these: in vitro kinase assay; read-out: IC50(nM) PI3K δ. The procedure:
(§1) IC50 values are measured using either a standard TLC assay for lipid kinase activity (described below) or a high-throughput membrane capture assay. Kinase reactions are performed by preparing a reaction mixture containing kinase, inhibitor (2% DMSO final concentration), buffer (25 mM HEPES, pH 7.4, 10 mM MgCl2), and freshly sonicated phosphatidylinositol (100 μg/ml). Reactions are initiated by the addition of ATP containing 10 μCi of γ-32P-ATP to a final concentration 10 or 100 μM and allowed to proceed for 5 minutes at room temperature. For TLC analysis, reactions are then terminated by the addition of 105 μl 1N HCl followed by 160 μl CHCl3:MeOH (1:1). The biphasic mixture is vortexed, briefly centrifuged, and the organic phase is transferred to a new tube using a gel loading pipette tip precoated with CHCl3. This extract is spotted on TLC plates and developed for 3-4 hours in a 65:35 solution of n-propanol:1M acetic acid. The TLC plates are then dried, exposed to a phosphorimager screen (Storm, Amersham), and quantitated.
(§2) Other commercial kits or systems for assaying PI3-K activities are available. The commercially available kits or systems can be used to screen for inhibitors and/or agonists of PI3-Ks including but not limited to PI 3-Kinase α, β, δ, and γ. An exemplary system is PI 3-Kinase (human) HTRF™ Assay from Upstate. […] Briefly, the assay is a time resolved FRET assay that indirectly measures PIP3 product formed by the activity of a PI3-K. The kinase reaction is performed in a microtitre plate (e.g., a 384 well microtitre plate). The total reaction volume is approximately 20 ul per well. In the first step, each well receives 2 ul of test compound in 20% dimethylsulphoxide resulting in a 2% DMSO final concentration. Next, approximately 14.5 ul of a kinase/PIP2 mixture (diluted in 1× reaction buffer) is added per well for a final concentration of 0.25-0.3 ug/ml kinase and 10 uM PIP2. The plate is sealed and incubated for 15 minutes at room temperature. To start the reaction, 3.5 ul of ATP (diluted in 1× reaction buffer) is added per well for a final concentration of 10 uM ATP. The plate is sealed and incubated for 1 hour at room temperature. The reaction is stopped by adding 5 ul of Stop Solution per well and then 5 ul of Detection Mix is added per well. The plate is sealed, incubated for 1 hour at room temperature, and then read on an appropriate plate reader. Data is analyzed and IC50s are generated using GraphPad Prism 5.

In another test the target is T2, PI3K γ (Homo sapiens, UniProt P48736).
T2 construct: purchased Sigma
As to the kind of experiment: In vitro IC50, PI3K γ (p110γ inhibition assay). It is filed as biochemical. The conditions noted are these: in vitro kinase assay. On the procedure:
as §1, with “Class I PI3-Ks can be either purchased (p110α/p85α, p110β/p85α, p110δ/p85α from Upstate, and p110γ from Sigma) or expressed as previously described (Knight et al., 2004). IC50” for “IC50”, “quantitated. For each compound, kinase activity is measured at 10-12 inhibitor concentrations representing two-fold dilutions from the highest concentration tested (typically, 200 μM).” for “quantitated.”
as §2

A further test has as its system Balb/c splenic B cells. As to the kind of experiment: B cell activation and proliferation assay (Alamar Blue). It counts as cell-based. The conditions noted are these: Mus musculus, read-out: B cell proliferation EC50. The procedure:
The ability of one or more subject compounds to inhibit B cell activation and proliferation is determined according to standard procedures known in the art. For example, an in vitro cellular proliferation assay is established that measures the metabolic activity of live cells. The assay is performed in a 96 well microtiter plate using Alamar Blue reduction. Balb/c splenic B cells are purified over a Ficoll-Paque™ PLUS gradient followed by magnetic cell separation using a MACS B cell Isolation Kit (Miletenyi). Cells are plated in 90 ul at 50,000 cells/well in B Cell Media (RPMI+10% FBS+Penn/Strep+50 uM bME+5 mM HEPES). A compound disclosed herein is diluted in B Cell Media and added in a 10 ul volume. Plates are incubated for 30 min at 37 C and 5% CO2 (0.2% DMSO final concentration). A 50 ul B cell stimulation cocktail is then added containing either 10 ug/ml LPS or 5 ug/ml F(ab′)2 Donkey anti-mouse IgM plus 2 ng/ml recombinant mouse IL4 in B Cell Media. Plates are incubated for 72 hours at 37° C. and 5% CO2. A volume of 15 uL of Alamar Blue reagent is added to each well and plates are incubated for 5 hours at 37 C and 5% CO2. Alamar Blue fluoresce is read at 560Ex/590Em, and IC50 or EC50 values are calculated using GraphPad Prism 5.
(Resazurin is reduced to fluorescent resorufin, in cell work by metabolically active cells.)

Another test has as its target T3, PI3K α (Homo sapiens, UniProt P42336).
T3 construct: purchased Upstate
Kind of test: In vitro IC50, PI3K α (p110α/p85α inhibition assay). It is filed as biochemical. The conditions noted are these: in vitro kinase assay; read-out: IC50(nM) PI3K α. The procedure: as §1, §2

A value given as a limit tells only on which side of the number the result lay.

T2 sequence (P48736 whole entry): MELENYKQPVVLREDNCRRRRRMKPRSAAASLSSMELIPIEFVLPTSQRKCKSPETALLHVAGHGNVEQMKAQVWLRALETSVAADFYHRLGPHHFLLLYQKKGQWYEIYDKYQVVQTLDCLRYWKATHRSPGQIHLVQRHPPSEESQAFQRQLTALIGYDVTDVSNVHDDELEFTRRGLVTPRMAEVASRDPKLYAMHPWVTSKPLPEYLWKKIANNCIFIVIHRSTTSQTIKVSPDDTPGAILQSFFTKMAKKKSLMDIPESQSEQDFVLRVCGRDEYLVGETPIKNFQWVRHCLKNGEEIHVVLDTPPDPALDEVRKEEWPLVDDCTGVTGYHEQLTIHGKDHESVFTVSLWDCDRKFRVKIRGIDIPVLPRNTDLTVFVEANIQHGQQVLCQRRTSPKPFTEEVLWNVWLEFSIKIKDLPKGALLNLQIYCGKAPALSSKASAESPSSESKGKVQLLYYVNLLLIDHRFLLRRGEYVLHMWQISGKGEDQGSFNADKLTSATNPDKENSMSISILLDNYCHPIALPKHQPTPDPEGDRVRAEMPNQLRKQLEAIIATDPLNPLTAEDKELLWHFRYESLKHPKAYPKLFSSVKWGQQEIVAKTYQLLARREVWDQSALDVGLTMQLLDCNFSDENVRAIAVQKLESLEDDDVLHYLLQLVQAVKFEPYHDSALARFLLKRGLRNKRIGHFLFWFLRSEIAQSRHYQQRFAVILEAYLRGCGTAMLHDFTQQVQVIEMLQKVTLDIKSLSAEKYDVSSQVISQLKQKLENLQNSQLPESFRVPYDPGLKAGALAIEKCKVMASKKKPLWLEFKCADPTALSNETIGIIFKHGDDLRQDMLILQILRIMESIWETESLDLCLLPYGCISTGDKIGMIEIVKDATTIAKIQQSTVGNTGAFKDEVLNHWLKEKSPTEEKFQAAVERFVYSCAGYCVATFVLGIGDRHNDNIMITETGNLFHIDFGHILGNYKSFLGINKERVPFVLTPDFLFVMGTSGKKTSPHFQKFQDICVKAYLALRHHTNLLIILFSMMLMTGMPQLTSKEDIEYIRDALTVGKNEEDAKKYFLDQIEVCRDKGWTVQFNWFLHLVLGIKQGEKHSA
T3 sequence (P42336 whole entry): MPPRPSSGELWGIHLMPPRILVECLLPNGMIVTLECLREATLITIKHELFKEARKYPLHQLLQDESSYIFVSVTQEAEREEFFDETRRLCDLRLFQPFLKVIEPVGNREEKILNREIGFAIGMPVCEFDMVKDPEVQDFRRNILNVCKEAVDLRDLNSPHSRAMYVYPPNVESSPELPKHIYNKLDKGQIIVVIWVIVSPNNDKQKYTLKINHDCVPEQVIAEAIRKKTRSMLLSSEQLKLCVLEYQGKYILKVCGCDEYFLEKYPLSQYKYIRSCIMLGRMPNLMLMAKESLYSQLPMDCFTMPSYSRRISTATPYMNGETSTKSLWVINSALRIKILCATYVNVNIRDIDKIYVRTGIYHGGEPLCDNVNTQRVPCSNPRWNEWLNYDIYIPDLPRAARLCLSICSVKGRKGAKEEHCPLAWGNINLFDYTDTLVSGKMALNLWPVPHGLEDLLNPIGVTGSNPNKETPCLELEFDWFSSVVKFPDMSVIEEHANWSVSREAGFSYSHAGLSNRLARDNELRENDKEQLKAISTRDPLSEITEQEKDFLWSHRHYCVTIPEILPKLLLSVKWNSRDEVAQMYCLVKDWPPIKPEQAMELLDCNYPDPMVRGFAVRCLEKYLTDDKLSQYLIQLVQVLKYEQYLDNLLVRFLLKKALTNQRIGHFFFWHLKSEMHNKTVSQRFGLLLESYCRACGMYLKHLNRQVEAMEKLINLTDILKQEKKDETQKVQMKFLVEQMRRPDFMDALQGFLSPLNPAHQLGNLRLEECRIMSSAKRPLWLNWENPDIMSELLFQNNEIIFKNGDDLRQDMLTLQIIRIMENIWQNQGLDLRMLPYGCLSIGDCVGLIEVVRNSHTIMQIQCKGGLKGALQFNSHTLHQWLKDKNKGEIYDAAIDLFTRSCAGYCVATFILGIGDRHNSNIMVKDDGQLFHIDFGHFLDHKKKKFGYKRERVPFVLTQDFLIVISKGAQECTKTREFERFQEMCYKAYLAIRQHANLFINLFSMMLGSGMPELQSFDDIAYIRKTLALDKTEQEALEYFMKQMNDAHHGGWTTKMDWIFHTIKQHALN
T3 sequence (P27986 whole entry partner): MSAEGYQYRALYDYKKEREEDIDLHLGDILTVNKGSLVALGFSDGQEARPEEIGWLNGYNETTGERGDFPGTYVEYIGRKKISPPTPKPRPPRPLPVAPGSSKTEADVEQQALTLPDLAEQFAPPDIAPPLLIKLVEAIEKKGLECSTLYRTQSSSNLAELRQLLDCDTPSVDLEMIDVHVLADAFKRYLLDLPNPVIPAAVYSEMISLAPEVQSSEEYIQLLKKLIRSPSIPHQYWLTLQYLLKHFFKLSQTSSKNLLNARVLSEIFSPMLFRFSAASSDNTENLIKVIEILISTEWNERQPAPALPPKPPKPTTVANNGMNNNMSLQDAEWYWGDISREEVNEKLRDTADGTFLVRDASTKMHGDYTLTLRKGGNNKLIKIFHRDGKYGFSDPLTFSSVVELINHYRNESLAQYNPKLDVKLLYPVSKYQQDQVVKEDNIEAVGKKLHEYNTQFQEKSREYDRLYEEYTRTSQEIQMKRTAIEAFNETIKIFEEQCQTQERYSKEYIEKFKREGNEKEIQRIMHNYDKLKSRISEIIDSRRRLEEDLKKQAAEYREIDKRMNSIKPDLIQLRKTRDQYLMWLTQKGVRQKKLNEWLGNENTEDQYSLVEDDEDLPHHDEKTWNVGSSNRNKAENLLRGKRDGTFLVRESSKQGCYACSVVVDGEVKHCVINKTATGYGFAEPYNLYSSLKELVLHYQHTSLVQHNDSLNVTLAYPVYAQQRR
T1 sequence (O00329 whole entry): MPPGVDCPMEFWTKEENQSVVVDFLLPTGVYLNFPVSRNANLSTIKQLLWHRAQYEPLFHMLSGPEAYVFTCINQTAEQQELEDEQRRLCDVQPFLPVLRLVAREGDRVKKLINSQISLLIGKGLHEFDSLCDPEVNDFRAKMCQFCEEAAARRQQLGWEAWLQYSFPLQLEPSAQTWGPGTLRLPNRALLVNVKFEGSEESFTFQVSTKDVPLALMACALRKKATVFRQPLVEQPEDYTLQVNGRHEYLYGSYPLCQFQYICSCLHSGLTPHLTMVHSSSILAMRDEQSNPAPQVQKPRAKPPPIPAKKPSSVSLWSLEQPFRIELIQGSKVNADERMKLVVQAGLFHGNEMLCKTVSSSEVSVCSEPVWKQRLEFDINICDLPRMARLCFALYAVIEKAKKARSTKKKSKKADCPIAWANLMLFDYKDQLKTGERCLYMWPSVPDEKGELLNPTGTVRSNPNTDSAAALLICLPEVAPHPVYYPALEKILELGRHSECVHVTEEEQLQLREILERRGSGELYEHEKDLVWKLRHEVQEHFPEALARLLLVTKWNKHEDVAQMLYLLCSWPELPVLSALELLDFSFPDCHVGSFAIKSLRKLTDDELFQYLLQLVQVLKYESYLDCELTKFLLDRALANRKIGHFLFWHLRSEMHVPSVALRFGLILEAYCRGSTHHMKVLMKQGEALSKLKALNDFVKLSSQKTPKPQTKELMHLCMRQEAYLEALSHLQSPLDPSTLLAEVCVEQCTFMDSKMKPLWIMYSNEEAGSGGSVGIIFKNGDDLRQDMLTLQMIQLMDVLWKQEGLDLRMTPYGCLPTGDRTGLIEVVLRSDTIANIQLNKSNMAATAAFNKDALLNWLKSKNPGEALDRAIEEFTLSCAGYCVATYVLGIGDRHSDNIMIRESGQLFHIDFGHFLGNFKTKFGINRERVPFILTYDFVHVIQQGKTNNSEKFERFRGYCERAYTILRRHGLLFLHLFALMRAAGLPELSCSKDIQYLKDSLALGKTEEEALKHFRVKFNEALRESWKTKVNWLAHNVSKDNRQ
T1 sequence (P27986 whole entry partner): as the sequence (P27986 whole entry partner) above

As for `Cc1cccc2cc(Cn3nc(-c4ccc5oc(N)nc5c4)c4c(N)ncnc43)nc(N3CCCC3)c12` [Compound 26], the IC50 (commonly the concentration that gives 50% inhibition) was under 100 nM at PI3K δ, under 100 nM on PI3K γ and under 1000 nM on PI3K α. The EC50 in the test with Balb/c splenic B cells is under 1000 nM.

Take `Cc1cccc2cc(C(C)Nc3ncnc4[nH]cnc34)nc(CCN3CCN(C)CC3)c12` (centres unmarked) [Compound 20]: the IC50 on PI3K δ was under 100 nM; at PI3K γ, over 10000 nM; at PI3K α, over 10000 nM. For the same molecule, the EC50 with Balb/c splenic B cells is under 100 nM.

In the case of `Cc1cccc2cc(C(C)Nc3ncnc4[nH]cnc34)nc(NCCN3CCOCC3)c12` (centres unmarked) [Compound 42], the IC50 was under 100 nM at PI3K δ and over 10000 nM against PI3K γ. Also, the EC50 in the test with Balb/c splenic B cells was under 1000 nM.

Turning to `Cc1cccc2cc(Cn3nc(-c4ccc5oc(N)nc5c4)c4c(N)ncnc43)nc(N3CCOCC3)c12` [Compound 36], the IC50 on PI3K δ and at PI3K γ was under 100 nM in each case. Also, the EC50 in the test with Balb/c splenic B cells is under 1000 nM.

As for `C[C@H](Nc1ncnc2[nH]cnc12)c1cc2cccc(Cl)c2c(N2CCCC2)n1` [Compound 63], the IC50 at PI3K δ was under 100 nM; on PI3K γ it was under 10000 nM; on PI3K α it was over 10000 nM. Moreover, the EC50 in the test with Balb/c splenic B cells was under 1000 nM.

On to `CCN1CCC(Oc2nc(Cn3nc(-c4ccc5oc(N)nc5c4)c4c(N)ncnc43)cc3cccc(C)c23)CC1` [Compound 6], for which the IC50 was under 100 nM at PI3K δ, under 100 nM on PI3K γ and under 1000 nM at PI3K α. The EC50 with Balb/c splenic B cells was under 100 nM.

In the case of `Nc1nc2cc(-c3nn(Cc4cc5ccccc5c(N5CCCC5)n4)c4ncnc(N)c34)ccc2o1` [Compound 1], the IC50 on PI3K δ is under 100 nM; at PI3K γ it was under 100 nM; at PI3K α it was under 1000 nM. For the same molecule, the EC50 with Balb/c splenic B cells was under 1000 nM.

Take `CCN1CCC(COc2nc(C(C)Nc3ncnc4[nH]cnc34)cc3cccc(C)c23)CC1` (centres unmarked) [Compound 46]: the results for the IC50 at PI3K δ and at PI3K γ were under 100 nM and over 10000 nM, respectively. The EC50 with Balb/c splenic B cells was under 100 nM.

For the molecule `C[C@H](Nc1ncnc2[nH]cnc12)c1cc2cccc(Cl)c2c(N2CCOCC2)n1` [Compound 62], the 50% inhibitory concentration (IC50) at PI3K δ was under 1000 nM; against PI3K γ it was under 10000 nM; at PI3K α, over 10000 nM. In addition, the EC50 in the test with Balb/c splenic B cells is under 1000 nM.

Turning to `Cc1cccc2cc(Cn3nc(-c4cn[nH]c4)c4c(N)ncnc43)nc(OC3CCN(C(C)C)CC3)c12` [Compound 13], the results for the IC50 at PI3K δ, on PI3K γ and at PI3K α were under 100 nM, under 10000 nM and under 10000 nM, respectively. Besides, the EC50 in the test with Balb/c splenic B cells is under 100 nM.

As to `CC(Nc1ncnc2[nH]cnc12)c1cc2cccc(Cl)c2c(CN2CCN(S(C)(=O)=O)CC2)n1` (centres unmarked) [Compound 59], the IC50 is under 1000 nM on PI3K δ, over 10000 nM on PI3K γ and over 10000 nM on PI3K α. Further, the EC50 with Balb/c splenic B cells was under 1000 nM.

As to `C[C@H](Nc1ncnc2[nH]cnc12)c1cc2cccc(Cl)c2c(OCCN2CCOCC2)n1` [Compound 65], the IC50 on PI3K δ was under 100 nM; against PI3K γ, under 1000 nM; on PI3K α, under 10000 nM. The EC50 with Balb/c splenic B cells is under 100 nM.

Regarding `CN1CCC(Oc2nc(Cn3nc(-c4cn[nH]c4)c4c(N)ncnc43)cc3cccc(Cl)c23)CC1` [Compound 55], the values for the IC50 at PI3K δ, at PI3K γ and on PI3K α were under 100 nM, over 10000 nM and over 10000 nM, respectively. Further, in the test with Balb/c splenic B cells, the EC50 was under 100 nM.

Take `Cc1cccc2cc(Cn3nc(-c4cn[nH]c4)c4c(N)ncnc43)nc(OC3CCNCC3)c12` [Compound 9]: the values for the 50% inhibitory concentration (IC50) at PI3K δ, against PI3K γ and on PI3K α were under 100 nM, over 10000 nM and over 10000 nM, respectively. For the same molecule, in the test on Balb/c splenic B cells, the EC50 was under 10000 nM.

For `Cc1cccc2cc(C(C)Nc3ncnc4[nH]cnc34)nc(N3CCOCC3)c12` (centres unmarked) [Compound 44], the IC50 was under 100 nM at PI3K δ and under 10000 nM at PI3K γ. Also, the EC50 in the test on Balb/c splenic B cells was under 1000 nM.

On to `CCN1CCC(Oc2nc(C(C)Nc3ncnc4[nH]cnc34)cc3cccc(C)c23)CC1` (centres unmarked) [Compound 16], for which the IC50 at PI3K δ was under 100 nM; at PI3K γ it was over 10000 nM; at PI3K α, over 10000 nM. For the same molecule, the EC50 in the test on Balb/c splenic B cells was under 100 nM.

`Cc1cccc2cc([C@H](C)Nc3ncnc4[nH]cnc34)nc(OC3CCN(S(C)(=O)=O)CC3)c12` [Compound 61]: the IC50 at PI3K δ is under 1000 nM; against PI3K γ, under 10000 nM; at PI3K α, over 10000 nM. Further, the EC50 in the test with Balb/c splenic B cells is under 1000 nM.

Turning to `Nc1ncnc2c1c(-c1cn[nH]c1)nn2Cc1cc2cccc(Cl)c2c(N2CCOCC2)n1` [Compound 66], the IC50 at PI3K δ is under 100 nM; against PI3K γ, under 1000 nM; on PI3K α it was under 10000 nM. Moreover, the EC50 in the test on Balb/c splenic B cells was under 100 nM.

For `CC(C)N1CCC(Oc2nc(Cn3nc(-c4cn[nH]c4)c4c(N)ncnc43)cc3cccc(Cl)c23)CC1` [Compound 57], the values for the IC50 on PI3K δ, against PI3K γ and on PI3K α were under 100 nM, over 10000 nM and over 10000 nM, respectively. In the test on Balb/c splenic B cells, the EC50 is under 100 nM.

In the case of `Cc1cccc2cc(Cn3nc(-c4ccc5oc(N)nc5c4)c4c(N)ncnc43)nc(CCN3CCN(C)CC3)c12` [Compound 25], the IC50 on PI3K δ was under 100 nM; against PI3K γ it was under 1000 nM; on PI3K α, under 1000 nM. For the same molecule, in the test with Balb/c splenic B cells, the EC50 is under 100 nM.

Take `C[C@H](Nc1ncnc2[nH]cnc12)c1cc2cccc(Cl)c2c(OC2CCN(S(C)(=O)=O)CC2)n1` [Compound 60]: the IC50 on PI3K δ was under 1000 nM; against PI3K γ, under 10000 nM; at PI3K α, over 10000 nM. Besides, the EC50 with Balb/c splenic B cells is under 1000 nM.

For the molecule `Cc1cccc2cc(C(C)Nc3ncnc4[nH]cnc34)nc(CCN3CCCC3)c12` (centres unmarked) [Compound 39], the concentration for half-maximal inhibition (IC50) at PI3K δ was under 100 nM; at PI3K γ it was over 10000 nM. For the same molecule, in the test with Balb/c splenic B cells, the EC50 was under 100 nM.

With `Cc1cccc2cc(C(C)Nc3ncnc4[nH]cnc34)nc(OCC3CCN(C)CC3)c12` (centres unmarked) [Compound 45], the IC50 at PI3K δ was under 100 nM; on PI3K γ, over 10000 nM. Also, the EC50 in the test with Balb/c splenic B cells is under 100 nM.

`Cc1cccc2cc(Cn3nc(-c4cn[nH]c4)c4c(N)ncnc43)nc(N3CCOCC3)c12` [Compound 37]: the IC50 at PI3K δ is under 100 nM; on PI3K γ, under 10000 nM. Further, in the test on Balb/c splenic B cells, the EC50 was under 100 nM.

Consider `Cc1cccc2cc(C(C)Nc3ncnc4[nH]cnc34)nc(CCN3CCOCC3)c12` (centres unmarked) [Compound 38], for which the figures for the IC50 on PI3K δ and against PI3K γ were under 100 nM and under 10000 nM, respectively. Besides, the EC50 in the test with Balb/c splenic B cells was under 100 nM.
